# Experimental data published in patent US20230357099A1, “PYRAZOLO [3,4-B] PYRIDINE-4-CARBOXAMIDE NITRIFICATION INHIBITOR” (EUROCHEM ANTWERPTEN, priority 2020, published 2023).
# Legend:
# [1] = tested on: agricultural soils (Moorslede and Sint-Laureins); assay: Greenhouse gas measurements from fertilized soil
# Experimental: Two agricultural soils coming from fields in Moorslede and Sint-Laureins were used. Screw top vials were filled with 10 g soil. Vials were sealed with Parafilm and preincubated at 21° C. in the dark for 5 days. After pre-incubation, vials were ventilated using a fan. Then 100 µL of a 1 mM compound solution (10 % DMSO) was added, immediately followed by the addition of 100 µL 200 mM NH4Cl. Vials were closed gastight and 5 mL synthetic air was added to the headspace using a plastic syringe, followed by the transfer of 5 mL headspace to an evacuated 3 mL exetainer. Vials were incubated at 21° C. in the dark and background NO concentration was noted. At each sampling timepoint, 5 mL synthetic air was added again to the headspace using a plastic syringe, again followed by the transfer of 5 mL headspace to an evacuated 3 mL exetainer. Vials were ventilated and closed again, and new gas samples were transferred to exetainers like before. N2O in the exetainers were measured via gas chromatography (GC-14 B (Schimadzu) equipped with Haysep Q columns (same spec) and an ECD detector, He at c.a. 20 mL min, 70° C.). The CO2 and CH4 concentration in the 3 mL exetainer vials was measured using a GC (Trace-GC, Interscience) equipped with Haysep Q columns (80-100, ⅛″ divided in 2 part 0.25 and 2.0 m connected with a 6 port valve to allow backflush of water vapor) and a FID (CH4) and TCD (CO2). Carrier gas was He c.a. 20 mL/min kept at 90° C. NO concentration was measured directly by connecting a chemiluminescence NO detector (CLD 77 AM, eco physics) directly to the headspace using a needle.
# [2] = tested on: Candidatus Nitrospira kreftii; assay: Nitrification inhibition in Candidatus Nitrospira kreftii; type: cell-based; conditions: concentration of 6.25 µM
# Experimental: Candidatus Nitrospira kreftii is a high (90%) enrichment of novel comammox species. To quantify nitrification inhibition in Ca. Nitrospira kreftii, a homogenous sample was taken from the bioreactor, washed and resuspended in sterile NOB mineral salts medium supplemented with (per liter) 1 mL of a trace element stock solution composed of NTA (15 g/L), ZnSO4 · 7H2O (0.43 g/L), CoCl2 · 6H2O (0.24 g/L), MnCl2 · 4H2O (0.99 g/L), CuSO4 · 5H2O (0.25 g/L), Na2MoO4 · 2H2O (0.22 g/L), NiCl2 · 6H2O (0.19 g/L), NaSeO4·10H2O (0.021 g/L), […] (0.014 g/L), CeCl·6H2O (0.24 g/L) and 1 mL of an iron stock solution composed of NTA (10 g/L) and FeSO4 (5 g/L). The final ammonium concentration was 200 µM.
# To increase the nitrification rate, the cell density was increased 5 times via centrifugation. For homogenous distribution of the flocs, Ca. Nitrospira kreftii was continuously stirred during distribution with a multichannel pipet in the 96-well plates. […]
# Ammonium concentrations were measured fluorescently via a modified orthophatal-dialdehyde assay. Nitrite and nitrate concentrations were determined consecutively with a spectrophotometer (at 540 nm): for nitrite, after addition of 100 µL Griess reagent to 100 µL sample (10 min incubation at room temperature) and for nitrate, subsequent to secondary addition of 27 µL of a saturated VCl3 solution in HCl (30 min incubation at 60° C.).
compound,measurement,setting,value
CC(C)c1cc(C(=O)N2CCSCC2)c2cnn(C(C)C)c2n1 [Example 2],N2O emissions compared to the DMSO control (in words),[1]; Moorslede soil,strongly reduced the emissions
same,"Cumulative emission at indicated timepoint [ppb], N2O, 4 h",[1]; Moorslede soil,119 ppb
same,"Cumulative emission at indicated timepoint [ppb], N2O, 24 h",[1]; Moorslede soil,834 ppb
same,"Cumulative emission at indicated timepoint [ppb], N2O, 48 h",[1]; Moorslede soil,1616 ppb
same,"Cumulative emission at indicated timepoint [ppb], N2O, 72 h",[1]; Moorslede soil,1875 ppb
same,"Cumulative emission at indicated timepoint [ppb], N2O, 99 h",[1]; Moorslede soil,1875 ppb
same,"Cumulative emission at indicated timepoint [ppb], NO, 4 h",[1]; Moorslede soil,256 ppb
same,"Cumulative emission at indicated timepoint [ppb], NO, 24 h",[1]; Moorslede soil,611 ppb
same,"Cumulative emission at indicated timepoint [ppb], NO, 48 h",[1]; Moorslede soil,1020 ppb
same,"Cumulative emission at indicated timepoint [ppb], NO, 72 h",[1]; Moorslede soil,1189 ppb
same,"Cumulative emission at indicated timepoint [ppb], NO, 99 h",[1]; Moorslede soil,1183 ppb
same,NO emissions compared to the DMSO or DMP control (in words),[1]; Sint-Laureins soil,reduce NO emissions
same,"Cumulative emission at indicated timepoint [ppb], N2O, 4 h",[1]; Sint-Laureins soil,33 ppb
same,"Cumulative emission at indicated timepoint [ppb], N2O, 24 h",[1]; Sint-Laureins soil,498 ppb
same,"Cumulative emission at indicated timepoint [ppb], N2O, 48 h",[1]; Sint-Laureins soil,1074 ppb
same,"Cumulative emission at indicated timepoint [ppb], N2O, 72 h",[1]; Sint-Laureins soil,1562 ppb
same,"Cumulative emission at indicated timepoint [ppb], N2O, 99 h",[1]; Sint-Laureins soil,1703 ppb
same,"Cumulative emission at indicated timepoint [ppb], NO, 4 h",[1]; Sint-Laureins soil,81 ppb
same,"Cumulative emission at indicated timepoint [ppb], NO, 24 h",[1]; Sint-Laureins soil,201 ppb
same,"Cumulative emission at indicated timepoint [ppb], NO, 48 h",[1]; Sint-Laureins soil,371 ppb
same,"Cumulative emission at indicated timepoint [ppb], NO, 72 h",[1]; Sint-Laureins soil,547 ppb
same,"Cumulative emission at indicated timepoint [ppb], NO, 99 h",[1]; Sint-Laureins soil,600 ppb
same,inhibition at 6.25 µM,[2],57.3%
